Measurements as given in US12269816B2, “Benzothiophene compound, preparation method therefor and use thereof” (SICHUAN KELUN-BIOTECH BIOPHARMACEUTICAL CO., LTD., priority 2019, dated 2025).

Columns and labels:
Type in all cases: cell-based
[1] = system: STING and its downstream proteins TBK1 and IRF3 in THP-1 cells; test: Western blotting of phosphorylation of STING signal pathway proteins in human THP-1 cells; details: 3 hours, protein blotting, FIGS. 1-5, result in words
Text: In this experiment, the changes in the phosphorylation levels of STING and its downstream proteins TBK1 (TANK-binding kinase 1) and IRF3 (interferon regulatory factor 3) were detected by protein blotting to evaluate the agonistic effect of the test compounds on the STING signal pathway at the cellular level.
The THP-1 cells in the logarithmic phase were centrifuged, and resuspended in a cell culture solution to a density of […]. The cell suspension was inoculated into a 12-well cell culture plate (Corning) at 0.5 mL/well. The compound to be tested was diluted with a cell culture solution to 2× working solution concentration (control compounds 1 and 2: 60 μM; compounds 1 and 3: 0.6 μM, 6 μM, and 60 μM; compounds 2, 4, 6 and 8: 6 μM, 20 μM, and 60 μM). 0.5 mL of the diluted solution of the compound was added into a 12-well plate (500 μl of the culture solution containing 2% DMSO was added into the negative control well), and the plate was incubated in a cell incubator for 3 hours. After the incubation, the cells were collected by centrifugation, lysed with 60 μL cell lysis buffer (CST) for 30 minutes, and centrifuged at 12,000 rpm for 15 minutes. The supernatant was collected to determine the protein concentration, and then an appropriate amount of 5× protein loading buffer was added. The mixture was heated at 95° C. for 10 minutes to prepare a protein electrophoresis sample. Finally protein blotting was performed to detect the phosphorylation level of the corresponding protein. The primary antibodies used in the protein blotting were purchased from CST: STING (D2P2F) rabbit mAb, Phospho-STING (Ser366) rabbit mAb, Phospho-IRF3 (Ser396) (D601M) rabbit mAb, IRF3 (D83B9) rabbit mAb, TBK1/NAK (D1B4) rabbit mAb, Phospho-TBK1/NAK (Ser172) (D52C2) XP® rabbit mAb, and GAPDH (D16H11) rabbit mAb; and the secondary antibody horseradish peroxidase-conjugated goat anti-rabbit IgG (H+L) was purchased from Zsgb-bio.

[2] = system: STING pathway cytokine hIFN-β in human THP-1 cells; test: ELISA of STING pathway cytokine hIFN-β expression in human THP-1 cells; details: for EC50: hIFN-β expression; for EC50 / Emax: 8 hours, ELISA; for Emax: highest expression of hIFN-β; for agonistic effect on the expression of hIFN-β: result in words
Text: In this experiment, the expression of STING signal pathway cytokine hIFN-β was detected in THP1 cells (Nanjing Cobioer) by the ELISA method, so as to evaluate the agonistic effect of the compounds to be tested on the expression of STING pathway cytokine hIFN-β at the cellular level.
THP1 cells (Nanjing Cobioer) in the logarithmic phase were centrifuged, and resuspended in a cell culture solution to a density of 8×10^6 cells/ml. The cell suspension was inoculated into a 24-well cell culture plate (Corning) at 250 μL/well.
The mother liquor of the compound to be tested was diluted with a cell culture solution to obtain a 2× working concentration diluted solution (control compounds 1 and 2 were diluted at a 2-fold gradient: 200, 100, 50, 25, 12.5, 6.25, 3.125, 1.5625 and 0 μM; and compounds 4, 6, and 8 were diluted at a 3-fold gradient: 200, 66.67, 22.22, 7.41, 2.47, 0.82, 0.27, 0.091 and 0 μM). The 2× working concentration diluted solution of the compound was added into 24-well plate (250 μl of the culture solution containing 2% DMSO was added into the negative control well) at 250 μL/well. The culture plate was placed in a cell culture incubator, and incubated for 8 hours. After the cell incubation, the supernatant was collected by centrifugation at 300 g×5 min, and the hIFN-β content (pg/ml) in the cell culture supernatant was detected according to the operating instructions of the VeriKine Human […] ELISA kit from PBL (obtained by conversion of the […] absorbance-hIFN-β standard concentration standard curve and the OD450 nm absorbance value read by the microplate reader). […] was calculated through log(agonist) vs. response—Variable slope fitting by the Graphpad Prism software, and the experimental results are shown in Table 2.
In the table, EC50 refers to the concentration of a compound when the expression of hIFN-β generated by stimulation of the compound reaches half of Emax and Emax refers to the highest expression of hIFN-β generated by stimulation of the compound.

[3] = system: STING pathway cytokine mIFN-β in mouse Raw264.7 cells; test: ELISA of STING pathway cytokine mIFN-β expression in mouse Raw264.7 cells; details: for Emax: highest expression of mIFN-β; for Emax / EC50: 6 h, ELISA; for EC50: mIFN-β expression; for agonistic effect on the expression of mIFN-β: result in words
Text: In this experiment, the expression of STING signal pathway cytokine mIFN-β was detected in Raw264.7 cells (Nanjing Cobioer) by the ELISA method, so as to evaluate the agonistic effect of the compound to be tested on the expression of STING pathway cytokine mIFN-β at the cellular level.
Raw264.7 cells (Nanjing Cobioer) in the logarithmic phase were centrifuged, and resuspended in a cell culture solution to a density of 1.6×10^6 cells/ml. The cell suspension was inoculated into a 24-well cell culture plate (Corning) at 250 μL/well. The mother liquor of the compound to be tested was gradiently diluted with a cell culture solution to obtain a 2× working concentration diluted solution (control compound 1 was diluted at a 3-fold gradient: 200, 66.67, 22.22, 7.41, 2.47, 0.82, 0.27 and 0 μM; control compound 2 was diluted at a 2-fold gradient: 200, 100, 50, 25, 12.5, 6.25, 3.125 and 0 μM; and compounds 4, 6 and 8 were diluted at a 4-fold gradient: 200, 50, 12.5, 3.13, 0.78, 0.20, 0.049 and 0 μM). The 2× working concentration diluted solution of the compound was added into a 24-well plate (250 μl of the culture solution containing 2% DMSO was added into the negative control well) at 250 μL/well. The culture plate was then placed in a cell incubator, and incubated for 6 h. After the cell incubation, the supernatant was collected by centrifugation at 300 g×5 min, and the mIFN-β content (pg/ml) in the cell culture supernatant was detected according to the operating instructions of the VeriKinem Mouse IFN Beta ELISA Kit from PBL (obtained by conversion of the OD450 nm absorbance-mIFN-β standard concentration standard curve and the OD450 nm absorbance value read by the microplate reader). EC50 was calculated through log(agonist) vs. response—Variable slope fitting by the Graphpad Prism software, and the experimental results are shown in Table 3.
In the table, EC50 refers to the concentration of a compound when the expression of mIFN-β generated by stimulation of the compound reaches half of Emax; and Emax refers to the highest expression of mIFN-β generated by stimulation of the compound.

SMILES	agonistic effect on the phosphorylation levels of STING, TBK1 and IRF3 [1]	EC50 [2]	Emax [2]	agonistic effect on the expression of hIFN-β [2]	Emax [3]	EC50 [3]	agonistic effect on the expression of mIFN-β [3]
COc1cc2sc(C(=O)N(C)CCC(=O)O)cc2cc1OCCCOc1cc2sc(C(=O)CCC(=O)O)cc2cc1OC [Compound 4, 4-(6-(3-((2-((2-carboxyethyl)(methyl)carbamoyl)-6-methoxybenzo[b]thiophen-5-yl)oxy)propoxy)-5-methoxybenzo[b]thiophen-2-yl)-4-oxobutanoic acid]	strong agonistic effects	5.57 µM	908.0 pg/mL	strong agonistic effect	1082.21 pg/mL	3.6 µM	strong agonistic effect
COc1cc2sc(C(=O)CCC(=O)O)cc2cc1OCCCOc1cc2cc(C(=O)N(C)CCC(=O)O)sc2cc1OC [Compound 8, 4-(5-(3-((2-((2-carboxyethyl)(methyl)carbamoyl)-6-methoxybenzo[b]thiophen-5-yl)oxy)propoxy)-6-methoxybenzo[b]thiophen-2-yl)-4-oxobutanoic Acid]	strong agonistic effects	1.25 µM	917.1 pg/mL	strong agonistic effect	1176.75 pg/mL	0.56 µM	strong agonistic effect
COc1cc2sc(C(=O)CCC(=O)O)cc2cc1OCCCOc1cc2sc(C(=O)N(C)CCC(=O)O)cc2cc1OC [Compound 6, 4-(5-(3-((2-((2-carboxyethyl)(methyl)carbamoyl)-5-methoxybenzo[b]thiophen-6-yl)oxy)propoxy)-6-methoxybenzo[b]thiophen-2-yl)-4-oxobutanoic acid]	strong agonistic effects	1.82 µM	829.6 pg/mL	strong agonistic effect	1012.51 pg/mL	3.8 µM	strong agonistic effect
